From PubChem BioAssay (NCI)
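96-well plates; 48 h exposure; 5 concentrations. Endpoints by linear interpolation between flanking doses. Not reached: highest tested concentration assigned. TGI marks complete inhibition of growth.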

Key:
Test in all cases: NCI tumour cell line growth inhibition, 48 h
OVCAR-3 ovarian = system: OVCAR-3 ovarian
786-0 renal = system: 786-0 renal
CCRF-CEM leukemia = system: CCRF-CEM leukemia
SK-MEL-28 melanoma = system: SK-MEL-28 melanoma
SF-295 CNS = system: SF-295 CNS
A549 NSCLC = system: A549 NSCLC
SNB-78 CNS = system: SNB-78 CNS
DMS 114 small cell lung = system: DMS 114 small cell lung
DLD-1 colon = system: DLD-1 colon
TK-10 renal = system: TK-10 renal
M19-MEL melanoma = system: M19-MEL melanoma
DMS 273 small cell lung = system: DMS 273 small cell lung
SK-MEL-2 melanoma = system: SK-MEL-2 melanoma
KM12 colon = system: KM12 colon
OVCAR-5 ovarian = system: OVCAR-5 ovarian
SR leukemia = system: SR leukemia
MALME-3M melanoma = system: MALME-3M melanoma
XF 498 CNS = system: XF 498 CNS
NCI-H522 lung = system: NCI-H522 lung
IGROV1 ovarian = system: IGROV1 ovarian
COLO 205 colon = system: COLO 205 colon
KM20L2 colon = system: KM20L2 colon
HOP-92 NSCLC = system: HOP-92 NSCLC
UACC-62 melanoma = system: UACC-62 melanoma
SK-MEL-5 melanoma = system: SK-MEL-5 melanoma
OVCAR-8 ovarian = system: OVCAR-8 ovarian
EKVX NSCLC = system: EKVX NSCLC
HT29 colon = system: HT29 colon
A498 renal = system: A498 renal
NCI-H226 lung = system: NCI-H226 lung
SNB-19 CNS = system: SNB-19 CNS
SF-268 CNS = system: SF-268 CNS
M14 melanoma = system: M14 melanoma
RXF 393 renal = system: RXF 393 renal
UACC-257 melanoma = system: UACC-257 melanoma
HCT-116 colon = system: HCT-116 colon
SNB-75 CNS = system: SNB-75 CNS
HOP-62 NSCLC = system: HOP-62 NSCLC
SK-OV-3 ovarian = system: SK-OV-3 ovarian
OVCAR-4 ovarian = system: OVCAR-4 ovarian
HCT-15 colon = system: HCT-15 colon
K-562 leukemia = system: K-562 leukemia
SW-620 colon = system: SW-620 colon
NCI-H23 lung = system: NCI-H23 lung
MOLT-4 leukemia = system: MOLT-4 leukemia
HCC-2998 colon = system: HCC-2998 colon
ACHN renal = system: ACHN renal
HL-60(TB) leukemia = system: HL-60(TB) leukemia
LXFL 529 NSCLC = system: LXFL 529 NSCLC
UO-31 renal = system: UO-31 renal
U251 CNS = system: U251 CNS
SN12C renal = system: SN12C renal
SF-539 CNS = system: SF-539 CNS
HOP-18 NSCLC = system: HOP-18 NSCLC
CAKI-1 renal = system: CAKI-1 renal
LOX IMVI melanoma = system: LOX IMVI melanoma
NCI-H460 lung = system: NCI-H460 lung
RXF-631 renal = system: RXF-631 renal
P388 leukemia = system: P388 leukemia
P388/ADR leukemia = system: P388/ADR leukemia
SN12K1 renal = system: SN12K1 renal
RPMI-8226 leukemia = system: RPMI-8226 leukemia
MCF7 breast = system: MCF7 breast
NCI/ADR-RES ovarian = system: NCI/ADR-RES ovarian

Cc1ccc(S(=O)(=O)N(/N=C(\N)Oc2ccc(Cl)cc2)C(=N)Oc2ccc(Cl)cc2)cc1
TGI (OVCAR-3 ovarian): > 100 µM | TGI (786-0 renal): > 100 µM | TGI (CCRF-CEM leukemia): > 100 µM | TGI (SK-MEL-28 melanoma): > 100 µM | TGI (SF-295 CNS): > 100 µM | TGI (A549 NSCLC): > 100 µM | TGI (SNB-78 CNS): > 100 µM | TGI (DMS 114 small cell lung): > 100 µM | TGI (DLD-1 colon): > 100 µM | TGI (TK-10 renal): > 100 µM | TGI (M19-MEL melanoma): > 100 µM | TGI (DMS 273 small cell lung): > 100 µM | TGI (SK-MEL-2 melanoma): > 100 µM | TGI (KM12 colon): > 100 µM | TGI (OVCAR-5 ovarian): > 100 µM | TGI (SR leukemia): > 100 µM | TGI (MALME-3M melanoma): > 100 µM | TGI (XF 498 CNS): > 100 µM | TGI (NCI-H522 lung): > 100 µM | TGI (IGROV1 ovarian): > 100 µM | TGI (COLO 205 colon): > 100 µM | TGI (KM20L2 colon): > 100 µM | TGI (HOP-92 NSCLC): > 100 µM | TGI (UACC-62 melanoma): > 100 µM | TGI (SK-MEL-5 melanoma): > 100 µM | TGI (OVCAR-8 ovarian): > 100 µM | TGI (EKVX NSCLC): > 100 µM | TGI (HT29 colon): > 100 µM | TGI (A498 renal): > 100 µM | TGI (NCI-H226 lung): > 100 µM | TGI (SNB-19 CNS): > 100 µM | TGI (SF-268 CNS): > 100 µM | TGI (M14 melanoma): > 100 µM | TGI (RXF 393 renal): > 100 µM | TGI (UACC-257 melanoma): > 100 µM | TGI (HCT-116 colon): > 100 µM | TGI (SNB-75 CNS): > 100 µM | TGI (HOP-62 NSCLC): > 100 µM | TGI (SK-OV-3 ovarian): > 100 µM | TGI (OVCAR-4 ovarian): > 100 µM | TGI (HCT-15 colon): > 100 µM | TGI (K-562 leukemia): > 100 µM | TGI (SW-620 colon): > 100 µM | TGI (NCI-H23 lung): > 100 µM | TGI (MOLT-4 leukemia): > 100 µM | TGI (HCC-2998 colon): > 100 µM | TGI (ACHN renal): > 100 µM | TGI (HL-60(TB) leukemia): > 100 µM | TGI (LXFL 529 NSCLC): > 100 µM | TGI (UO-31 renal): > 100 µM | TGI (U251 CNS): > 100 µM | TGI (SN12C renal): > 100 µM | TGI (SF-539 CNS): > 100 µM | TGI (HOP-18 NSCLC): > 100 µM | TGI (CAKI-1 renal): > 100 µM | TGI (LOX IMVI melanoma): > 100 µM | TGI (NCI-H460 lung): > 100 µM

NCCCCCS(=O)(=O)O
TGI (OVCAR-3 ovarian): > 100 µM | TGI (786-0 renal): > 100 µM | TGI (CCRF-CEM leukemia): > 100 µM | TGI (SK-MEL-28 melanoma): > 100 µM | TGI (A549 NSCLC): > 100 µM | TGI (SNB-78 CNS): > 100 µM | TGI (DMS 114 small cell lung): > 100 µM | TGI (DLD-1 colon): > 100 µM | TGI (TK-10 renal): > 100 µM | TGI (M19-MEL melanoma): > 100 µM | TGI (DMS 273 small cell lung): > 100 µM | TGI (SK-MEL-2 melanoma): > 100 µM | TGI (RXF-631 renal): > 100 µM | TGI (KM12 colon): > 100 µM | TGI (OVCAR-5 ovarian): > 100 µM | TGI (SR leukemia): > 100 µM | TGI (MALME-3M melanoma): > 100 µM | TGI (NCI-H522 lung): > 100 µM | TGI (IGROV1 ovarian): > 100 µM | TGI (COLO 205 colon): > 100 µM | TGI (KM20L2 colon): > 100 µM | TGI (UACC-62 melanoma): > 100 µM | TGI (SK-MEL-5 melanoma): > 100 µM | TGI (OVCAR-8 ovarian): > 100 µM | TGI (EKVX NSCLC): > 100 µM | TGI (HT29 colon): > 100 µM | TGI (A498 renal): > 100 µM | TGI (SNB-19 CNS): > 100 µM | TGI (SF-268 CNS): > 100 µM | TGI (M14 melanoma): > 100 µM | TGI (RXF 393 renal): > 100 µM | TGI (UACC-257 melanoma): > 100 µM | TGI (HCT-116 colon): > 100 µM | TGI (SNB-75 CNS): > 100 µM | TGI (HOP-62 NSCLC): > 100 µM | TGI (SK-OV-3 ovarian): > 100 µM | TGI (OVCAR-4 ovarian): > 100 µM | TGI (HCT-15 colon): > 100 µM | TGI (K-562 leukemia): > 100 µM | TGI (SW-620 colon): > 100 µM | TGI (NCI-H23 lung): > 100 µM | TGI (MOLT-4 leukemia): > 100 µM | TGI (HCC-2998 colon): > 100 µM | TGI (ACHN renal): > 100 µM | TGI (HL-60(TB) leukemia): > 100 µM | TGI (LXFL 529 NSCLC): > 100 µM | TGI (UO-31 renal): > 100 µM | TGI (U251 CNS): > 100 µM | TGI (SN12C renal): > 100 µM | TGI (SF-539 CNS): > 100 µM | TGI (HOP-18 NSCLC): > 100 µM | TGI (LOX IMVI melanoma): > 100 µM | TGI (NCI-H460 lung): > 100 µM

CC1=CC(O)C(O)C2(C)C1CC1OC(=O)C(O)C3C(C)C(O)C4(O)OCC13C42 (configuration not stated)
TGI (OVCAR-3 ovarian): 121 µM | TGI (CCRF-CEM leukemia): 96.9 µM | TGI (SK-MEL-28 melanoma): 502 µM | TGI (SF-295 CNS): 364 µM | TGI (A549 NSCLC): 387 µM | TGI (P388 leukemia): > 625 µM | TGI (SNB-78 CNS): 154 µM | TGI (DMS 114 small cell lung): 157 µM | TGI (DLD-1 colon): > 625 µM | TGI (M19-MEL melanoma): 394 µM | TGI (DMS 273 small cell lung): > 567 µM | TGI (SK-MEL-2 melanoma): 196 µM | TGI (KM12 colon): 389 µM | TGI (OVCAR-5 ovarian): > 454 µM | TGI (P388/ADR leukemia): > 625 µM | TGI (MALME-3M melanoma): 464 µM | TGI (XF 498 CNS): 311 µM | TGI (NCI-H522 lung): 214 µM | TGI (IGROV1 ovarian): 224 µM | TGI (COLO 205 colon): 79.7 µM | TGI (KM20L2 colon): 233 µM | TGI (HOP-92 NSCLC): 14.6 µM | TGI (UACC-62 melanoma): 341 µM | TGI (SK-MEL-5 melanoma): 142 µM | TGI (OVCAR-8 ovarian): > 570 µM | TGI (EKVX NSCLC): 197 µM | TGI (SN12K1 renal): 150 µM | TGI (HT29 colon): 159 µM | TGI (A498 renal): 72.1 µM | TGI (RPMI-8226 leukemia): 108 µM | TGI (NCI-H226 lung): 243 µM | TGI (SNB-19 CNS): 91.7 µM | TGI (SF-268 CNS): 444 µM | TGI (MCF7 breast): 464 µM | TGI (RXF 393 renal): 51 µM | TGI (UACC-257 melanoma): 467 µM | TGI (HCT-116 colon): > 625 µM | TGI (SNB-75 CNS): 33.3 µM | TGI (HOP-62 NSCLC): 348 µM | TGI (SK-OV-3 ovarian): 359 µM | TGI (OVCAR-4 ovarian): 476 µM | TGI (HCT-15 colon): > 625 µM | TGI (K-562 leukemia): > 394 µM | TGI (SW-620 colon): 224 µM | TGI (NCI-H23 lung): 250 µM | TGI (MOLT-4 leukemia): 65.6 µM | TGI (HCC-2998 colon): 126 µM | TGI (NCI/ADR-RES ovarian): > 625 µM | TGI (HL-60(TB) leukemia): 189 µM | TGI (UO-31 renal): 518 µM | TGI (U251 CNS): 475 µM | TGI (SN12C renal): > 625 µM | TGI (SF-539 CNS): 237 µM | TGI (HOP-18 NSCLC): > 625 µM | TGI (CAKI-1 renal): 205 µM | TGI (LOX IMVI melanoma): 156 µM | TGI (NCI-H460 lung): 50 µM
